In one test the target is T1, HDAC1 enzyme (Homo sapiens, UniProt Q13547).
T1 construct: prepared by transducing full length HDAC1 and HDAC6 genes into Sf-9 insect cells; GST; purchased SignalChem; host or cells: Sf-9 insect cells
Briefly: HDAC1 enzyme inhibitory assay (HDAC-Glo I/II Assay kit). The note with it: 1 μM test compound; for inhibition at 1 µM: read-out: HDAC1 inhibitory rate (%) (1 μM). Type of test: biochemical. How it is done:
HDAC1 enzyme and HDAC6 enzyme each prepared by transducing full length HDAC1 and HDAC6 genes into Sf-9 insect cells and purifying by GST affinity column were purchased from SignalChem. Using these enzymes, HDAC1 and/or HDAC6 enzyme inhibitory activities of the compound of the present invention were evaluated. Enzymes were used after preserved at −70° C. HDAC1 or HDAC6 enzyme inhibitory activity of the compound of the present invention was measured using HDAC-Glo™ I/II Assay kit (Promega) according to the following experimental method. The test compound diluted with assay buffer (24 mM Tris-HCl (pH 7.5), 1 mM MgCl2, 0.35 mM KCl, 135 mM NaCl, 0.6 mM Glutathione, 0.01% Tween-20) was added to a 384-well plate by each 2 μL. Then, HDAC1 or HDAC6 enzyme solution diluted with assay buffer was added thereto by each 4 μL, and the plate was incubated at room temperature for 60 min. After incubated, HDAC substrate-Developer solution prepared according to Promega protocol attached to the assay kit was added to the 384-well plate by each 2 μL, and the enzyme reaction was started. After reacting at room temperature for 20 min, luminescence level was measured using plate reader Envision (PerkinElmer). The inhibitory activity of each compound was calculated as a relative activity value when luminescence level in wells without enzyme is considered as 100% inhibition.

The target of a further test is T2, HDAC6 enzyme (Homo sapiens, UniProt Q9UBN7).
T2 construct: prepared by transducing full length HDAC1 and HDAC6 genes into Sf-9 insect cells; GST; purchased SignalChem; host or cells: Sf-9 insect cells
T2 sequence (Q9UBN7 1-1215): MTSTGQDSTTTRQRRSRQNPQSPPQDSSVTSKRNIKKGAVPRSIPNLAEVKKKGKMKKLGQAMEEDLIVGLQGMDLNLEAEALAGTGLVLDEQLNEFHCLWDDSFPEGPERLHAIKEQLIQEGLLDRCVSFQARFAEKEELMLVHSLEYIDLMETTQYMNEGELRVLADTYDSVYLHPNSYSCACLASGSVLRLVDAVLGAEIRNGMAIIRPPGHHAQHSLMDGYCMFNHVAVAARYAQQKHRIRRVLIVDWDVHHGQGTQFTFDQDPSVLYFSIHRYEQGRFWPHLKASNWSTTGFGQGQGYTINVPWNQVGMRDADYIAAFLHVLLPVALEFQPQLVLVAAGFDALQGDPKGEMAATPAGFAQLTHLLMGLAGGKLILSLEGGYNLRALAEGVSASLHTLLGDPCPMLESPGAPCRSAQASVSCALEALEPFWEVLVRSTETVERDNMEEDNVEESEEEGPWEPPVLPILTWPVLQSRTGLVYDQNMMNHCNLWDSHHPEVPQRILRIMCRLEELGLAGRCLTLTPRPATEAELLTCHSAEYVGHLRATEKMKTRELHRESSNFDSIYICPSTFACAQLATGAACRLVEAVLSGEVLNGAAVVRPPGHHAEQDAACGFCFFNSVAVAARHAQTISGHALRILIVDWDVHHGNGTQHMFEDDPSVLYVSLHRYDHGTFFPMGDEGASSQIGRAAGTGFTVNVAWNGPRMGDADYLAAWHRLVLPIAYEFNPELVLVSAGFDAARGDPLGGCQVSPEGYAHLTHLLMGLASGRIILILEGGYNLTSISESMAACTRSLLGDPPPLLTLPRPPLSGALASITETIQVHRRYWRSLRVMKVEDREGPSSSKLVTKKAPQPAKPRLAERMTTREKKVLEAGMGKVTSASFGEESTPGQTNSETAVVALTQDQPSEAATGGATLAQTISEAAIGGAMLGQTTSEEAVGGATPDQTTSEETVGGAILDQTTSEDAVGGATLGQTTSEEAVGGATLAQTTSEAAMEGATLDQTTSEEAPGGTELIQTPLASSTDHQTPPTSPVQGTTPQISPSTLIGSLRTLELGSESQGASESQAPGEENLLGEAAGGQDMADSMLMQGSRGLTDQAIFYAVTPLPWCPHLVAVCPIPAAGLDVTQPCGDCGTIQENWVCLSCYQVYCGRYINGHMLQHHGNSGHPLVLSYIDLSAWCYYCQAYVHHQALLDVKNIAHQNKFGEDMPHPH
Briefly: HDAC6 enzyme inhibitory assay (HDAC-Glo I/II Assay kit). The class given is biochemical. The note with it: 1 μM test compound; for inhibition at 1 µM: read-out: HDAC6 inhibitory rate (%) (1 μM). A digest of the protocol: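 Relative activity was calculated from luminescence, with wells lacking enzyme defined as 100% inhibition. The enzymes were full-length HDAC1 or HDAC6 from Sf-9 cells, preincubated with test compound for 60 min before a 20-min substrate-developer reaction at room temperature.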

SMILES strings stand for the structures.

T1 sequence (Q13547 whole entry): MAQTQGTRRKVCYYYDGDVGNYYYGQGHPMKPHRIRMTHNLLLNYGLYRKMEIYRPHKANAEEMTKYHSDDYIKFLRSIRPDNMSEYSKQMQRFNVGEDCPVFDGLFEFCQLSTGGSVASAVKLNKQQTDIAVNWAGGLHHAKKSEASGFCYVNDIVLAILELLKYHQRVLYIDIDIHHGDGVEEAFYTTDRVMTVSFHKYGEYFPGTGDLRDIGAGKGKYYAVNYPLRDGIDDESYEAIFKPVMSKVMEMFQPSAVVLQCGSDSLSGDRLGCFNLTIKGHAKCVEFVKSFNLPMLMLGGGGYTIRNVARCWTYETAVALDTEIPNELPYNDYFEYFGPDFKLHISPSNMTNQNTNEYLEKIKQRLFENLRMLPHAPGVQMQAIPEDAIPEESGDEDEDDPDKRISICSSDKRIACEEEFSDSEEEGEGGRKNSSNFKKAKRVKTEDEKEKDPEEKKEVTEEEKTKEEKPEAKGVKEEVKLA

For `CC(C)(C(=O)N1CCOCC1CNC(=O)c1ccc(-c2noc(C(F)(F)F)n2)cc1)n1cccn1` (stereo in doubt) [Example 101, N-(((3S)-4-(2-methyl-2-(1H-pyrazol-1-yl)propanoyl)morpholin-3-yl)methyl)-4-(5-(trifluoromethyl)-1,2,4-oxadiazol-3-yl)benzamide], the inhibition at 1 µM was found to be 17% at HDAC1 enzyme and 99% on HDAC6 enzyme.

As for `CCc1noc(C)c1C(=O)N1CCOCC1CNC(=O)c1ccc(-c2noc(C(F)(F)F)n2)cc1` (stereo in doubt) [Example 102, N-(((3S)-4-((3-ethyl-5-methyl-1,2-oxazol-4-yl)carbonyl)morpholin-3-yl)methyl)-4-(5-(trifluoromethyl)-1,2,4-oxadiazol-3-yl)benzamide], the inhibition at 1 µM worked out at 50% on HDAC1 enzyme and 99% at HDAC6 enzyme.

With `O=C(NCC1COCCN1C(=O)C1(c2ccccc2)COC1)c1ccc(-c2noc(C(F)(F)F)n2)cc1` (stereo in doubt) [Example 103, N-(((3S)-4-((3-phenyloxetan-3-yl)carbonyl)morpholin-3-yl)methyl)-4-(5-(trifluoromethyl)-1,2,4-oxadiazol-3-yl)benzamide], the inhibition at 1 µM on HDAC1 enzyme came to 35%; on HDAC6 enzyme it was 98%.

As for `O=C(NCC1COCCN1C(=O)C1CCNC1=O)c1ccc(-c2noc(C(F)(F)F)n2)cc1` (stereo in doubt) [Example 104, N-(((3S)-4-((2-oxopyrrolidin-3-yl)carbonyl)morpholin-3-yl)methyl)-4-(5-(trifluoromethyl)-1,2,4-oxadiazol-3-yl)benzamide], the values for the inhibition at 1 µM on HDAC1 enzyme and on HDAC6 enzyme were 9% and 57%, respectively.

As for `O=C(NCC1COCCN1C(=O)C1CCNC1=O)c1ccc(-c2noc(C(F)(F)F)n2)cc1` (stereo in doubt) [Example 105, N-(((3S)-4-((2-oxopyrrolidin-3-yl)carbonyl)morpholin-3-yl)methyl)-4-(5-(trifluoromethyl)-1,2,4-oxadiazol-3-yl)benzamide], the “HDAC1 inhibitory rate (%) (1 μM)” value at HDAC1 enzyme is on record as 8%. Besides, the “HDAC6 inhibitory rate (%) (1 μM)” value at HDAC6 enzyme (1 µM) worked out at 76%.

In the case of `CCn1nccc1C(=O)N1CCOCC1CNC(=O)c1ccc(-c2noc(C(F)(F)F)n2)cc1` (stereo in doubt) [Example 106, N-(((3S)-4-((1-ethyl-1H-pyrazol-5-yl)carbonyl)morpholin-3-yl)methyl)-4-(5-(trifluoromethyl)-1,2,4-oxadiazol-3-yl)benzamide], the inhibition at 1 µM at HDAC1 enzyme came out at 51%; at HDAC6 enzyme, 98%.

Turning to `O=C(NCC1COCCN1C(=O)c1ccccc1)c1ccc(-c2noc(C(F)(F)F)n2)cc1` (stereo in doubt) [Example 111, N-(((3R)-4-benzoylmorpholin-3-yl)methyl)-4-(5-(trifluoromethyl)-1,2,4-oxadiazol-3-yl)benzamide], the inhibition at 1 µM at HDAC1 enzyme is 21%; on HDAC6 enzyme, 101%.

`O=C(NCC1COCCN1C(=O)c1cc(Cl)cc(Cl)c1)c1ccc(-c2noc(C(F)(F)F)n2)cc1` (stereo in doubt) [Example 112, N-(((3R)-4-(3,5-dichlorobenzoyl)morpholin-3-yl)methyl)-4-(5-(trifluoromethyl)-1,2,4-oxadiazol-3-yl)benzamide]: the figures for the inhibition at 1 µM on HDAC1 enzyme and at HDAC6 enzyme were 16% and 97%, respectively.

Regarding `O=C(NCC1COCCN1C(=O)c1cccc(F)c1)c1ccc(-c2noc(C(F)(F)F)n2)cc1` (stereo in doubt) [Example 113, N-(((3R)-4-(3-fluorobenzoyl)morpholin-3-yl)methyl)-4-(5-(trifluoromethyl)-1,2,4-oxadiazol-3-yl)benzamide], the “HDAC1 inhibitory rate (%) (1 μM)” value on HDAC1 enzyme was determined as 17%. For the same compound, the inhibition at 1 µM at HDAC6 enzyme stood at 97%.

Consider `O=C(NCC1COCCN1C(=O)c1ccccc1N1CCOCC1)c1ccc(-c2noc(C(F)(F)F)n2)cc1` (stereo in doubt) [Example 118, N-(((3R)-4-(2-(morpholin-4-yl)benzoyl)morpholin-3-yl)methyl)-4-(5-(trifluoromethyl)-1,2,4-oxadiazol-3-yl)benzamide], for which the inhibition at 1 µM at HDAC1 enzyme was found to be 17%; on HDAC6 enzyme it was 97%.

`O=C(NCC1COCCN1C(=O)c1cc(F)c(F)c(F)c1)c1ccc(-c2noc(C(F)(F)F)n2)cc1` (stereo in doubt) [Example 119, N-(((3R)-4-(3,4,5-trifluorobenzoyl)morpholin-3-yl)methyl)-4-(5-(trifluoromethyl)-1,2,4-oxadiazol-3-yl)benzamide]: the inhibition at 1 µM was 11% at HDAC1 enzyme and 97% at HDAC6 enzyme.

`O=C(NCC1COCCN1C(=O)c1ccccc1)c1ccc(-c2noc(C(F)(F)F)n2)cc1` (centres unmarked) [Example 1, N-((4-benzoylmorpholin-3-yl)methyl)-4-(5-(trifluoromethyl)-1,2,4-oxadiazol-3-yl)benzamide]: the inhibition at 1 µM was 22% on HDAC1 enzyme and 98% at HDAC6 enzyme.

Take `O=C(NCC1COCCN1C(=O)c1ccccc1F)c1ccc(-c2noc(C(F)(F)F)n2)cc1` (centres unmarked) [Example 3]: the inhibition at 1 µM on HDAC1 enzyme is 19%; on HDAC6 enzyme, 99%.

As to `O=C(NCC1COCCN1C(=O)c1cccc(F)c1)c1ccc(-c2noc(C(F)(F)F)n2)cc1` (centres unmarked) [Example 4, N-((4-(3-fluorobenzoyl)morpholin-3-yl)methyl)-4-(5-(trifluoromethyl)-1,2,4-oxadiazol-3-yl)benzamide], the inhibition at 1 µM was 18% at HDAC1 enzyme and 100% at HDAC6 enzyme.

Regarding `O=C(NCC1COCCN1C(=O)c1ccc(F)cc1)c1ccc(-c2noc(C(F)(F)F)n2)cc1` (centres unmarked) [Example 5, N-((4-(4-fluorobenzoyl)morpholin-3-yl)methyl)-4-(5-(trifluoromethyl)-1,2,4-oxadiazol-3-yl)benzamide], the inhibition at 1 µM is 21% on HDAC1 enzyme and 99% on HDAC6 enzyme.

Regarding `O=C(NCC1COCCN1C(=O)c1ccccc1Cl)c1ccc(-c2noc(C(F)(F)F)n2)cc1` (centres unmarked) [Example 6, N-((4-(2-chlorobenzoyl)morpholin-3-yl)methyl)-4-(5-(trifluoromethyl)-1,2,4-oxadiazol-3-yl)benzamide], the figures for the inhibition at 1 µM on HDAC1 enzyme and at HDAC6 enzyme were 22% and 111%, respectively.

In the case of `O=C(NCC1COCCN1C(=O)c1cccc(Cl)c1)c1ccc(-c2noc(C(F)(F)F)n2)cc1` (centres unmarked) [Example 7, N-((4-(3-chlorobenzoyl)morpholin-3-yl)methyl)-4-(5-(trifluoromethyl)-1,2,4-oxadiazol-3-yl)benzamide], the inhibition at 1 µM on HDAC1 enzyme is 24%; at HDAC6 enzyme, 101%.

As to `O=C(NCC1COCCN1C(=O)c1ccc(Cl)cc1)c1ccc(-c2noc(C(F)(F)F)n2)cc1` (centres unmarked) [Example 8], the figures for the inhibition at 1 µM on HDAC1 enzyme and on HDAC6 enzyme were 33% and 97%, respectively.

As for `Cc1ccccc1C(=O)N1CCOCC1CNC(=O)c1ccc(-c2noc(C(F)(F)F)n2)cc1` (centres unmarked) [Example 9, N-((4-(2-methylbenzoyl)morpholin-3-yl)methyl)-4-(5-(trifluoromethyl)-1,2,4-oxadiazol-3-yl)benzamide], the results for the inhibition at 1 µM on HDAC1 enzyme and on HDAC6 enzyme were 21% and 99%, respectively.
